Reference: ChEMBL document CHEMBL4359843, “Linear and Rationally Designed Stapled Peptides Abrogate TLR4 Pathway and Relieve Inflammatory Symptoms in Rheumatoid Arthritis Rat Model” (J Med Chem, 2019)
The source made the active and inactive calls. The rule behind the calls is not given here. Where a SMILES comes first, the peptide text is derived from it. Bridges are numbered along the chain shown (N, C = ends).

Experiments:
[1] = biological target: T1, Toll-like receptor 4 (Mus musculus) (UniProt Q9QUK6); test: Antagonist activity at TLR4 in mouse RAW264.7 cells assessed as reduction in LPS-induced IFNbeta secretion at 5 to 50 uM after 24 hrs by ELISA; type: cell-based
T1 sequence (whole entry): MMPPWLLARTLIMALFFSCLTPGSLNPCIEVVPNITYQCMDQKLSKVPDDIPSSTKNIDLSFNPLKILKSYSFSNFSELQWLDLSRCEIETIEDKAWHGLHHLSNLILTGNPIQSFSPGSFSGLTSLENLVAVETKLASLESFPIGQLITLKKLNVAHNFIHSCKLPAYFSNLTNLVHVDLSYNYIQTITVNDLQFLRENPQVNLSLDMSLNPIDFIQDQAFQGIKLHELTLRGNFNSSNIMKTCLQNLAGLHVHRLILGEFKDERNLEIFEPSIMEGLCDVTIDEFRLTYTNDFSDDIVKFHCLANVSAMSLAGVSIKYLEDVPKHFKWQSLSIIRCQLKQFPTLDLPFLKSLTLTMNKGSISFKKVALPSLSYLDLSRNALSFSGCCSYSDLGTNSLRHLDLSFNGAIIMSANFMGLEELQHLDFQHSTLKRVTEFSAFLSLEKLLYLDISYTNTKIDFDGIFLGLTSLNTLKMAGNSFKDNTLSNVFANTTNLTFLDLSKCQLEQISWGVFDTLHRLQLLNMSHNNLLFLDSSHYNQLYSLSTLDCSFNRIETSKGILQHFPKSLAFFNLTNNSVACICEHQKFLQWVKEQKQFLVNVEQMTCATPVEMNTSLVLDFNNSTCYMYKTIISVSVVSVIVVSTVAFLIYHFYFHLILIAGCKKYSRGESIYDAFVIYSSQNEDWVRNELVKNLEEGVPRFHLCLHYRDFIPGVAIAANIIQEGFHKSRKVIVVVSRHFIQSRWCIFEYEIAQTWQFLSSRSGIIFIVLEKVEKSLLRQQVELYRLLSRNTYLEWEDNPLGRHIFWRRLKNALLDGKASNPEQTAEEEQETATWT

Rattus norvegicus = test: Antiarthritic activity in Lewis rat model of complete Freund's adjuvant-induced arthritis assessed as reduction in inflammation synovial tissues at 1 nmol/g administered intra-articularly into knee joint after 6 week by Safranin-O staining based histopathological analysis; type: functional, organism-based
[2] = biological target: T1, Toll-like receptor 4 (Mus musculus); test: Antagonist activity at TLR4 in mouse RAW264.7 cells assessed as reduction in LPS-induced cytosolic ROS level at 80 uM by DCF-DA staining based FACS analysis; type: cell-based
Mus musculus = test: Antiinflammatory activity in C57BL/6J mouse assessed as reduction in LPS-induced IL-12p40 secretion at 70 nmol/g, ip pretreated for 1 hr followed by LPS challenge and measured after 2 hrs by ELISA; type: functional, organism-based

Compound	Activity [1]	Activity (Rattus norvegicus)	Activity [2]	Activity (Mus musculus)
CC[C@H](C)[C@@H]1NC(=O)[C@H](Cc2c[nH]c3ccccc23)NC(=O)[C@H](Cc2c[nH]c3ccccc23)NC(=O)[C@@H](NC(=O)[C@H](CO)NC(=O)[C@H](Cc2ccccc2)NC(=O)[C@@H](NC(=O)CNC(=O)[C@@H](N)CC(C)C)C(C)C)CC(=O)NCCCC[C@@H](C(=O)N[C@@H](CC(C)C)C(=O)N[C@H](C(=O)O)C(C)C)NC1=O (H-LGVFSDWWIKLV-OH; lactam 6-10)	Active	Active		
H-LGVFSSWWIKLV-OH			Active	Active
